We go through 15 compounds from patent US20260042753A1 (Merck Patent GmbH, priority 2019, published 2026).

The target of one assay is c-Kit(V654A) (Homo sapiens, UniProt P10721, V654A). Briefly: c-Kit(V654A) assay. Particulars: Table 2, corresponding triazole derivatives. In kind it is biochemical. Summed up: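 Radiometric filter-binding read-out: after 3% phosphoric acid stop, peptide-incorporated 33P on filtermat scintillation-counted. Enzyme: human c-Kit V654A, residues 544–end, N-terminal GST fusion.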

Assay [1] has as its target mutant cKIT (560-576 and V654A) in GIST430/654 cell line (Homo sapiens (Human), UniProt P10721, DEL560-576/V654A). Briefly: Cellular testing of cKIT mutant inhibitors: phospho-Y307-cKIT Luminex assay in GIST430/654 cells. Format: cell-based. Particulars: Table 2, corresponding triazole derivatives; read-out: GIST 430/654 IC50. Summed up:
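GIST430/654 cells carrying constitutively active cKIT (Δ560-576/V654A) were grown with 100 nM imatinib, then treated with serially diluted compound for 45 min. Lysates were captured on anti-total-cKIT Luminex beads overnight at 4 °C and probed for phospho-Y307-cKIT. IC50 was fitted from percent of 0.3% DMSO control.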

pIC50: −log10 of the molar value.

mutant cKIT (560-576 and V654A) in GIST430/654 cell line, sequence (P10721 other isoform, or with tags, fused parts or gaps V654A/del 1-25/del 560-576 limits assumed): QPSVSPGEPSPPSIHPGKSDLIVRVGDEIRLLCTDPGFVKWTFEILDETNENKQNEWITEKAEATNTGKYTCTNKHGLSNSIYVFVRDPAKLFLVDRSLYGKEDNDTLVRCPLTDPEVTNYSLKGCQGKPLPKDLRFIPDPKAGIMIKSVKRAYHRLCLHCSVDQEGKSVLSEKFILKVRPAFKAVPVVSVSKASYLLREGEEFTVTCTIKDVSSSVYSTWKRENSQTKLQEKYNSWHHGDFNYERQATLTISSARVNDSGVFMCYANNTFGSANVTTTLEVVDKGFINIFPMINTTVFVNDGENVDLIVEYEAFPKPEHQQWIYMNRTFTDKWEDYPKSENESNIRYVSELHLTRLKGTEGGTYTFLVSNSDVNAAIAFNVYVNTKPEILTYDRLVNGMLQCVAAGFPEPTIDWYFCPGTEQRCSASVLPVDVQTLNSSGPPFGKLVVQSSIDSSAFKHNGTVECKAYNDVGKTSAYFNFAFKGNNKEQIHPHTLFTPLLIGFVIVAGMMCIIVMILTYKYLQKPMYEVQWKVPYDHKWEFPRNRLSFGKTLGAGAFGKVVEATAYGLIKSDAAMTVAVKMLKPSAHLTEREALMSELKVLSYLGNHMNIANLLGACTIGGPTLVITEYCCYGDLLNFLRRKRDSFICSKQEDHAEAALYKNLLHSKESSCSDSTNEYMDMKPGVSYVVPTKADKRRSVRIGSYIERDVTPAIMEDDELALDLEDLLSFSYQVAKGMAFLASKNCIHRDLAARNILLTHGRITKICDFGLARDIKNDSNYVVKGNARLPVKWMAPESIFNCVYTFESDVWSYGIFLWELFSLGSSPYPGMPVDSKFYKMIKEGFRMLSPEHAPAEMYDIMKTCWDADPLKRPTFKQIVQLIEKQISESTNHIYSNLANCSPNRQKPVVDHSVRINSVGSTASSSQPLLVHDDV

Take `COCCOc1cc2[nH]nc(-c3cn(-c4ccc(C(=O)N5CCC[C@H]5C(C)(C)O)cc4)nn3)c2cc1F` [reference compound]: the values for the pIC50 (on c-Kit(V654A); in assay [1]) were 8.60 and 7.10, respectively.

Consider `COCCOc1cc2[nH]nc(-c3cn(-c4ccc(C(=O)N5CCN(C)CC5)cc4)nn3)c2cc1F` [reference compound], for which the pIC50 against c-Kit(V654A) was 7.82; in assay [1], 6.08.

On to `COCCOc1cc2[nH]nc(-c3cn(-c4ccc(C(=O)N5CCOC[C@H]5C)cc4)nn3)c2cc1F` [reference compound], for which the pIC50 against c-Kit(V654A) is 8.37; in assay [1], 6.64.

Take `COCCOc1ccc2c(-c3cn(-c4ccc(C(=O)N5CCN(C)C[C@@H]5C)cc4)nn3)n[nH]c2c1` [reference compound]: the pIC50 on c-Kit(V654A) is 8.21; in assay [1], 6.49.

As for `COCCOc1cc2[nH]nc(-c3cn(-c4ccc(C5CCNCC5(C)C)cc4)nn3)c2cc1F` (stereo not drawn) [reference compound], the pIC50 against c-Kit(V654A) was 7.68; in assay [1], 6.92.

With `COCCOc1cc2[nH]nc(-c3cn(-c4ccc(N5CCN(C)CC5)cc4)nn3)c2cc1F` [reference compound], the pIC50 against c-Kit(V654A) is 7.82; in assay [1], 6.00.

In the case of `COCCOc1cc2[nH]nc(-c3cn(-c4ccc(C(=O)N5CC(C#N)C5)cc4)nn3)c2cc1F` [reference compound], the pIC50 is 7.89 against c-Kit(V654A) and 5.66 in assay [1].

With `COCCOc1cc2[nH]nc(-c3cn(-c4ccc(C(=O)N5CC(F)C5)cc4)nn3)c2cc1F` [reference compound], the values for the pIC50 (against c-Kit(V654A); in assay [1]) were 7.96 and 6.24, respectively.

With `COCCOc1cc2[nH]nc(-c3cn(-c4ccc(C(=O)N5CC[C@H]5C(C)(C)O)cc4)nn3)c2cc1F` [reference compound], the pIC50 against c-Kit(V654A) is 8.12; in assay [1] it was 6.62.

With `COCCOc1cc2[nH]nc(-c3cn(-c4ccc(C(=O)N5CC(N6CCOCC6)C5)c(C)c4)nn3)c2cc1F` [reference compound], the pIC50 is 7.89 on c-Kit(V654A) and 6.06 in assay [1].

Turning to `COCCOc1cc2[nH]nc(-c3cn(-c4ccc(C(=O)N5CC(N6CCOCC6)C5)c(F)c4)nn3)c2cc1F` [reference compound], the pIC50 was 7.70 against c-Kit(V654A) and 6.15 in assay [1].

`COCCOc1cc2[nH]nc(-c3cn(-c4ccc(C(=O)N5Cc6ccncc6C5)cc4)nn3)c2cc1F` [reference compound]: the values for the pIC50 (on c-Kit(V654A); in assay [1]) were 8.64 and 6.85, respectively.

`COCCOc1cc2[nH]nc(-c3cn(-c4ccc(C(=O)N5C[C@H]6COC[C@H]6C5)cc4)nn3)c2cc1F` [reference compound]: the pIC50 at c-Kit(V654A) was 8.30; in assay [1], 6.33.

In the case of `COCCOc1cc2[nH]nc(-c3cn(-c4ccc(C(=O)N5CC(c6ccncc6)C5)cc4)nn3)c2cc1F` [reference compound], the pIC50 is 8.59 against c-Kit(V654A) and 6.80 in assay [1].

As for `COCCOc1cc2[nH]nc(-c3cn(-c4ccc(C(=O)N5CCN(C6COC6)CC5)cc4)nn3)c2cc1F` [reference compound], the pIC50 against c-Kit(V654A) is 8.11; in assay [1], 6.10.
